Test results from paper PMC11645267, “Novel pharmacologic inhibition of lysine-specific demethylase 1 as a potential therapeutic for glioblastoma” (Cancer Gene Therapy, 2024).

Columns and labels:
[1] = test system: KINGS1; assay: Western blot of global histone modifications; assay type: cell-based; conditions: KINGS1, 5 μM, 96 h
Method: The effects of S2172 on global histone modifications in GSCs were examined using western blot analysis. GSC cells were treated with 5 μM of S2172 since […] of the cells are still viable at this concentration (Fig. 2, Supplementary Fig. S1E). […] Treatment of GSCs with S2172 increased the overall levels of H3K4me2 as well as H3K9me2. However, these changes were not statistically significant (Fig. 2A, B). […]
(§1) instructions. For GSC cells, the CellTiter-Glo 3D Viability Assay (Promega, Madison, WI, USA) was used to measure the living cells. All proliferation experiments were repeated […]
The density of bands was quantified using ImageJ software (https://imagej.nih.gov/ij/). […]
When mice were scanned with MRI, mice were anesthetized with isoflurane (3% in air) and placed in MRS 3017 Benchtop MRI Systems (MR Solutions, Guildford, UK). Using MRI images, tumor volumes were obtained by compiling tumor areas from all slices that contained tumors and calculated by ImageJ software (https://imagej.nih.gov/ij/) {Towner, […]
B. Western blot analysis of LSD1,MYC, Nestin, SOX2,and ACTB in same cells as shown in panel A. ACTB was used as a loading control. […] Quantification of signal intensities of the Western blot (right panel). […] Right panel: Quantification of band signal intensities from the Western blot. […]

[2] = test system: F3; assay: Stemness marker expression (qPCR, western blot); assay type: cell-based; conditions: F3, 5 μM, 96 h
Text: Super-enhancers consist of enhancer clusters with abundant binding of transcription factors and are highly enriched with H3K27ac marks. The H3K4me2 increased regions included the MYC locus and H3K4me2 de novo regions comprised Nestin and SOX2 loci (Fig. 2F, Supplementary Fig. S5A). These regions were also identified as super-enhancers in GSCs using data from our previous study (Fig. 2F). Compared to the large increase in H3K4me2 in these regions, changes in H3K4me3 were subtle after S2172 treatment (only 2582 regions were acquired modification) (Fig. 2C). Increasing the me2/me3 ratio at H3K4 is associated with reduced gene expression. […]
as §1
A. Left panel: Western blot analysis of H3K4me1, H3K4me2, H3K4me3, and H3K9me2 after treatment with either DMSO or S2172 5μM for 96 h in normal neural stem cell F3 . […] Right panel: Quantification of signal intensities of the Western blot. […]
C. […] Right panel: Quantification of band signal intensities from the Western blot.
Error bars indicate the SD; n = 3. […] The ratio was calculated by dividing the intensity of the cleaved PARP band by the full-length PARP band. […]

NC1CCC(NC2CC2c2cc(F)cc(F)c2OCc2ccccc2)CC1 (centres unmarked) [S2172]
levels of H3K4me1, H3K4me2, H3K4me3, and H3K9me2 [1]: slight increase
expression levels of stemness markers [2]: not significantly affected
